From US20100021918A1, “METHOD FOR ASSAYING ACTION OF ANTITUMOR AGENT USING SPLICING DEFECTS AS INDEX” (Eisai R&D Management Co., Ltd., priority 2007, published 2010)

Assays:
p27/Kip1 = assay: Western blotting of abnormal protein from pre-mRNA, p27/Kip1; assay type: cell-based, human; conditions: HeLa cells, about 100 nM, 24 hours; untreated: only a 27 kDa band (FIG. 4)
Text: (§1) Consequently the protein may serves as a protein marker to monitor the action of (8E,12E,14E)-7-((4-cycloheptylpiperazin-1-yl)carbonyl)oxy-3,6,16,21-tetrahydroxy-6,10,12,16,20-pentamethyl-18,19-epoxytricosa-8,12,14-trien-11-olide. Whether the pre-mRNA-dependent abnormal protein practically emerged upon the treatment of (8E,12E,14E)-7-((4-cycloheptylpiperazin-1-yl)carbonyl)oxy-3,6,16,21-tetrahydroxy-6,10,12,16,20-pentamethyl-18,19-epoxytricosa-8,12,14-trien-11-olide was examined by using cancer cells (HaLa). […] Based on these findings, the protein generated from pre-mRNA can serve as the marker as well.
(§2) About 3×10^5 cells of HeLa cells were first seeded in a 24-well culture plate (bottom area: 2 cm^2), and 18 hours later, the compound was added thereto at the indicated concentration, followed by additional 24-hour culturing. The cells were washed once with PBS(−), and then were lysed by treating with 0.2 ml of M-PER reagent (PIERCE) for 30 minutes. The collected lysate was filtered with a 0.45 μm filter to remove insoluble matters and then combined with an equal amount of 2×SDS-PAGE sample solution. The mixture was heated to be denatured at 95° C. for five minutes to yield a sample to be analyzed.
(§3) The analysis sample (15 μl each) was separated with 5-20% SDS-PAGE and transferred onto a PVDF membrane (Hybond-P: GE-Amersham). […]

SMN = assay: Western blotting of abnormal protein from pre-mRNA, SMN; assay type: cell-based, human; conditions: HeLa cells, 10 nM and 100 nM, 24 hours; untreated: only a 35 kDa band (FIG. 4)
Text: as §1, §2, §3

CCC(O)C(C)C1OC1CC(C)(O)/C=C/C=C(\C)C1OC(=O)CC(O)CCC(C)(O)C(OC(=O)N2CCN(C3CCCCCC3)CC2)/C=C/C1C (centres unmarked) [E7107, (8E,12E,14E)-7-((4-cycloheptylpiperazin-1-yl)carbonyl)oxy-3,6,16,21-tetrahydroxy-6,10,12,16,20-pentamethyl-18,19-epoxytricosa-8,12,14-trien-11-olide]
p27/Kip1 bands in Western blot (p27/Kip1): appearance of a band with about 22 kDa was confirmed | SMN bands in Western blot (SMN): multiple bands with a molecular weight of less than 35 kDa were confirmed
